Measured values reported in patent US20250152577A1, “Pharmaceutical Composition of Ethidium Bromide and Use in Treating Cancer” (RUIJIN HOSPITAL, SHANGHAI JIAOTONG UNIVERSITY SCHOOL OF …, priority 2022, published 2025).

Columns and labels:
[1] = Toxicity of ethidium bromide: routine blood, liver and kidney functions; type: in vivo, nude mice; details: after 4 weeks of intravenous administration
Text: Finally, we also conducted a preliminary study on the toxicity of ethidium bromide by collecting whole blood and serum from the control and the dosing groups (administered intravenously for about 1 month) and tested their routine blood, and liver and kidney functions, respectively.

[2] = tested on: colorectal cancer cells RKO; test: Mitochondrial function by Seahorse; type: cell-based, human; details: Seahorse after 6 hours; concentration-dependent
Description: (§1) To further verify the effect of ethidium bromide on mitochondrial function, various cell lines were treated with ethidium bromide and mitochondrial function was tested by using Seahorse after 6 hours.

[3] = tested on: pancreatic cancer cells Panel; test: Mitochondrial function by Seahorse; type: cell-based, human; details: Seahorse after 6 hours; concentration-dependent
Description: as §1

[4] = tested on: Reh Leukemia; test: Median lethal dosage (IC50) against tumor cell lines; type: cell-based; details: Reh leukemia tumor cells
[5] = tested on: pancreatic cancer cells Panc1; test: Intraperitoneal injection of pancreatic cancer cells Panc1 in nude mice; type: in vivo; details: for tumor in the pancreas: start 3 days after cell injection
Description: To further verify whether ethidium bromide can inhibit tumor migration in vivo, we injected 2×10^6 pancreatic cancer cells Panc1 intraperitoneally into nude mice, which were then divided into 3 groups: control group, gavage, and intravenous injection administration. Mice in the gavage-administration group were started with gavage oral administration of 20 mg/Kg ethidium bromide per day by gavage 3 days after intraperitoneal injection of pancreatic cancer cells. Mice in the intravenous administration group were administered with 5 mg/Kg ethidium bromide per day intravenously (Tail-IV) 3 days after intraperitoneal injection of pancreatic cancer cells.
In order to further investigate the anti-tumor effect of ethidium bromide on nude mice with advanced tumorigenicity and to obtain its effect on the viability of nude mice, we intraperitoneally injected the nude mice with 2×10^6 pancreatic cancer cells Panc1, which were then divided into 3 groups, the control group (no-treatment group), the early-injection group (administered intravenously after 3 days) and the late-injection group (administered intravenously after 14 days). Mice in the early injection group were administered with 5 mg/Kg ethidium bromide intravenously per day for 3 weeks 3 days after intraperitoneal injection of pancreatic cancer cells (starting intravenous administration after 3 days for about 3 weeks). Mice in the late injection group were administered with 5 mg/Kg ethidium bromide intravenously per day for 3 weeks starting 2 weeks days after intraperitoneal injection of pancreatic cancer cells (starting intravenous administration after 14 days for about 3 weeks).
In addition, we utilize the most advanced nuclear magnetic spectrometer uMR 9.4T with a 30 cm aperture magnet jointly developed by our work unit and Shanghai United Imaging Healthcare Co., LTD, as well as our self-developed GC, GPA, and VTC42 coils specially designed for abdominal scanning, and an optional PET insert system to achieve the PET-MR imaging results of the temporal and spatial integrality. The development of pancreatic cancer was followed dynamically in the control and dosing groups following intraperitoneal injection of pancreatic cancer cells. Mice were injected intraperitoneally with 2×10^6 pancreatic cancer cells, Panc1, and left for 2 weeks after which a visible tumor mass can be detected in the abdominal cavity to begin intravenous administration of 5 mg/Kg ethidium bromide for 4 weeks. […] Moreover, the abdominal cavity of the control mice was filled with ascites by the late stage (where the arrows are shown), whereas there was none in the dosing group (FIGS. 13A and 13B). […] However, clearance was not achieved mostly as in the previous results and we analyzed that it might be due to the fact that the mice were kept in a non-SPF environment during the whole administration period of MRI, thus affecting the effect of the drug.

[6] = tested on: PANC1 Pancreatic cancer; test: Median lethal dosage (IC50) against tumor cell lines; type: cell-based; details: Homo sapiens, PANC-1; PANC1 pancreatic cancer tumor cells
[7] = tested on: GES1; test: Median lethal dosage (IC50) against normal cell lines; type: cell-based; details: Homo sapiens; GES1 normal cells
[8] = tested on: pancreatic cancer cells Panel; test: Ectopic lung metastasis after intravenous injection of pancreatic cancer cells in nude mice; type: in vivo; details: intravenous 5 mg/Kg per day, start about 3 weeks after cell injection, 4 weeks
Description: In addition, to further investigate the effect of ethidium bromide on ectopic tissue metastatic tumors, we injected 2×10^6 pancreatic cancer cells Panel intravenously into nude mice. After ectopic tissue metastasis, tumors formed primarily in the lungs. After approximately 3 weeks, intravenous administration of 5 mg/Kg ethidium bromide per day was started after the tumor had already grown in the lung tissue (FIG. 15A). The mice were sacrificed after 4 weeks of administration and the lungs were removed for test.

[9] = tested on: Hela Cervical cancer; test: Median lethal dosage (IC50) against tumor cell lines; type: cell-based; details: Homo sapiens; Hela cervical cancer tumor cells
[10] = tested on: AGS Gastric cancer; test: as above; type: cell-based; details: AGS gastric cancer tumor cells
[11] = tested on: AOM+DSS-induced colorectal tumor; test: AOM+DSS-induced spontaneous colorectal cancer mouse model; type: in vivo, mice
Description: The classical intraperitoneal injection of AOM and the spontaneous colorectal cancer formation by three rounds of DSS were utilized to construct a tumor mouse model. Mice were treated with ethidium bromide (500 mg/L dissolved in drinking water) one week after completion of the construction. […] Mice were sacrificed and their colorectum was taken for photographic observation and fixed staining.
To further verify the above results, we then expanded the sample size to about 10-16 mice per group and still used the above AOM+DSS protocol to induce spontaneous colorectal cancer formation in mice. […] Meanwhile, since it has been reported that zalcitabine (ddC) can effectively impair the function of mitochondria (mainly the replication of mtDNA, similar to ethidium bromide), we added the experimental group of zalcitabine (33 mg/Kg) as a control.
In addition, in order to investigate in what way ethidium bromide clears tumors in mice, we also tested cell proliferation (FIGS. 8A and B) and apoptosis (FIG. 8C-F) in tumor tissues and normal tissues surrounding the tumors in different treatment groups. Among them, cell proliferation was detected by immunohistochemistry of Ki67-positive cells, and apoptosis was detected by immunofluorescence staining of cleaved Caspase3.
To further verify whether ethidium bromide is still effective against already existing larger tumors (advanced colorectal cancer), we set aside a group of control mice (started administration 5 weeks after the end of induction, equivalent to the control group of mice described above) to administer them by gavage (20 mg/Kg per day).
We investigated the mechanism of ethidium bromide-induced apoptosis in tumor cells. First, tumor tissues treated with ethidium bromide (mice shown in FIGS. 7 and 8, treated for 4 weeks at 20 mg/Kg per day) were subjected to SDS-Loading buffer boiling lysis and tested for associated signaling pathways by Western blotting.

[12] = gavage 20 mg/Kg once daily, one month

## CC[n+]1c(-c2ccccc2)c2cc(N)ccc2c2ccc(N)cc21 [ethidium bromide, Ethidium bromide]
[1]; serum
  liver or kidney function vs control: no significant difference in liver or kidney function
[1]; whole blood
  blood routine data (hemoglobin, platelets, leukocytes): very normal
[2]
  oxygen consumption, glycolysis level, glycolysis rate: significantly reduced
[3]
  oxygen consumption, glycolysis level, glycolysis rate: significantly reduced
[4]
  IC50: 2.23 µM
[5]; administration group, especially intravenous injection, vs control
  weight of the pancreas: significantly smaller than that of the control group
[5]; dosing group, intravenous 5 mg/Kg per day, 3 weeks
  body weights: relatively stable
[5]; dosing groups, intravenous 5 mg/Kg per day, 3 weeks
  pancreatic cancer tumor (weight) vs control: significantly smaller than that in the control group
[5]; early injection group: intravenous 5 mg/Kg per day from day 3, 3 weeks
  nude mice with no tumor: More than 80%
[5]; gavage 20 mg/Kg per day
  tumor in the pancreas: still had a small amount of tumor, but was significantly smaller than that in the control group
[5]; intravenous 5 mg/Kg per day
  tumor in the pancreas: no tumor was found in the pancreas
[5]; intravenous 5 mg/Kg, start 2 weeks after cell injection, 4 weeks
  growth of pancreatic cancer in the abdominal cavity (MRI): significantly inhibited, or almost completely inhibited
[5]; intravenous injection compared with gavage
  body weight: did not cause a significant decrease in body weight
[5]; late dosing group, intravenous 5 mg/Kg per day, 3 weeks
  blood hemoglobin: remained relatively normal
[5]; late injection group
  tumors in the liver tissues vs control: significantly reduced
[5]; late injection group: intravenous 5 mg/Kg per day from day 14, 3 weeks
  nude mice with no tumor at all: about 45%
[5]; late-injected group
  weights of liver and pancreatic tissues vs control: significantly smaller
[6]
  IC50: 3.3 µM
[7]
  IC50: 64.7 µM
[8]
  tumors in the lung tissues vs control: significantly smaller than those in the control group
[9]
  IC50: 3.35 µM
[10]
  IC50: 0.71 µM
[11]; 500 mg/L in drinking water, start one week after model construction, 2 months
  colorectal tumor mass: almost complete disappearance of the tumor mass
[11]; 4 weeks at 20 mg/Kg per day
  cleaved Caspase3, phosphorylation of Erk, LC3 level in tumor tissues (Western blotting): significant increase in cleaved Caspase3
[11]; [12]
  body weight: little changed
  mice with complete disappearance of spontaneous colorectal tumors: more than 80%
  mtDNA copy number of colorectal tumors: did not alter the mitochondrial mtDNA copy number
  size of the spleen, length of colorectum, weight of tissue organs vs control: healthier
[11]; larger (advanced) tumors, start 5 weeks after end of induction, gavage 20 mg/Kg per day, 1 month
  mice achieving complete tumor clearance: more than 40%
[11]; vs other groups and surrounding normal tissues
  Caspase3-positive tumor cells (apoptotic cells, immunofluorescence): significantly higher
[11]; vs other treatment groups
  proliferation of tumor cells (Ki67-positive, immunohistochemistry): significantly lower
